# Measured values taken from patent US20250098679A1, “HERBICIDAL PYRIDONE DERIVATIVES” (SYNGENTA CROP PROTECTION AG, priority 2021, published 2025).
# Tests used:
# Type in all cases: in vivo
# Conditions in all cases: evaluated after 13 days
# [1] = test system: Ipomoea hederacea (IPOHE); test: Pre-emergence Test, Ipomoea hederacea (IPOHE)
# [2] = test system: Amaranthus palmeri (AMAPA); test: Pre-emergence Test, Amaranthus palmeri (AMAPA)
# [3] = test system: Amaranthus palmeri (AMAPA); test: Post-emergence Test, Amaranthus palmeri (AMAPA); set-up: key: 5=81-100%, 4=61-80%, 3=41-60%, 2=21-40%, 1=0-20% damage
# In short: (§1)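 Scores are percentage plant damage on a 1–5 scale (1=0-20%, 2=21-40%, 3=41-60%, 4=61-80%, 5=81-100%), read 13 days after treatment. Pots received a spray at 1000 g/ha unless otherwise stated, formulated in acetone/water (50:50) containing 0.5% Tween 20.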
# [4] = test system: Amaranthus retoflexus (AMARE); test: Post-emergence Test, Amaranthus retoflexus (AMARE); set-up: key to percentage damage caused to the plant, AMARE (five-point scale): 5=81-100%, 4=61-80%, 3=41-60%, 2=21-40%, 1=0-20% damage
# In short: as §1
# Setaria faberi (SETFA) [5] = test: Pre-emergence Test, Setaria faberi (SETFA)
# Zea mays (ZEAMX) [6] = test: Post-emergence Test, Zea mays (ZEAMX); set-up: key to percentage damage caused to the plant, ZEAMX (five-point scale): 5=81-100%, 4=61-80%, 3=41-60%, 2=21-40%, 1=0-20% damage
# In short: as §1
# [7] = test system: Echinochloa crus-galli (ECHCG); test: Pre-emergence Test, Echinochloa crus-galli (ECHCG)
# [8] = test system: Ipomoea hederacea (IPOHE); test: Post-emergence Test, Ipomoea hederacea (IPOHE); set-up: key to percentage damage caused to the plant, IPOHE (five-point scale): 5=81-100%, 4=61-80%, 3=41-60%, 2=21-40%, 1=0-20% damage
# In short: as §1
# [9] = test system: Amaranthus retoflexus (AMARE); test: Pre-emergence Test, Amaranthus retoflexus (AMARE)
# [10] = test system: Echinochloa crus-galli (ECHCG); test: Post-emergence Test, Echinochloa crus-galli (ECHCG); set-up: key to percentage damage caused to the plant, ECHCG (five-point scale): 5=81-100%, 4=61-80%, 3=41-60%, 2=21-40%, 1=0-20% damage
# In short: as §1
# Zea mays (ZEAMX) [11] = test: Pre-emergence Test, Zea mays (ZEAMX)
# Setaria faberi (SETFA) [12] = test: Post-emergence Test, Setaria faberi (SETFA); set-up: key to percentage damage caused to the plant, SETFA (five-point scale): 5=81-100%, 4=61-80%, 3=41-60%, 2=21-40%, 1=0-20% damage
# In short: as §1
SMILES,"Pre-emergence Test IPOHE, percentage damage caused to the plant (five-point scale) ([1]; 1000 g/ha)","Pre-emergence Test AMAPA, percentage damage caused to the plant (five-point scale) ([2]; 1000 g/ha)","percentage damage caused to the plant, AMAPA (five-point scale) ([3]; 250 g/Ha)","percentage damage caused to the plant, AMAPA (five-point scale) ([3]; 1000 g/ha)","percentage damage caused to the plant, AMARE (five-point scale) ([4]; 250 g/Ha)","percentage damage caused to the plant, AMARE (five-point scale) ([4]; 1000 g/ha)","Pre-emergence Test SETFA, percentage damage caused to the plant (five-point scale) (Setaria faberi (SETFA) [5]; 1000 g/ha)","percentage damage caused to the plant, ZEAMX (five-point scale) (Zea mays (ZEAMX) [6]; 250 g/Ha)","percentage damage caused to the plant, ZEAMX (five-point scale) (Zea mays (ZEAMX) [6]; 1000 g/ha)","Pre-emergence Test ECHCG, percentage damage caused to the plant (five-point scale) ([7]; 1000 g/ha)","percentage damage caused to the plant, IPOHE (five-point scale) ([8]; 250 g/Ha)","percentage damage caused to the plant, IPOHE (five-point scale) ([8]; 1000 g/ha)","Pre-emergence Test AMARE, percentage damage caused to the plant (five-point scale) ([9]; 1000 g/ha)","percentage damage caused to the plant, ECHCG (five-point scale) ([10]; 250 g/Ha)","percentage damage caused to the plant, ECHCG (five-point scale) ([10]; 1000 g/ha)","Pre-emergence Test ZEAMX, percentage damage caused to the plant (five-point scale) (Zea mays (ZEAMX) [11]; 1000 g/ha)","percentage damage caused to the plant, SETFA (five-point scale) (Setaria faberi (SETFA) [12]; 250 g/Ha)","percentage damage caused to the plant, SETFA (five-point scale) (Setaria faberi (SETFA) [12]; 1000 g/ha)",other results
"CCn1c(Cn2nc(C(F)(F)F)cc2OCCOC)cc(=O)c(C(=O)O)c1-c1ccc(Cl)c(Cl)c1 [Compound 144, 2-(3,4-dichlorophenyl)-1-ethyl-6-[[5-(2-methoxyethoxy)-3-(trifluoromethyl)pyrazol-1-yl]methyl]-4-oxo-pyridine-3-carboxylic acid]",1 (1=0-20%),0,0,1 (1=0-20%),1 (1=0-20%),2 (2=21-40%),5 (5=81-100%),0,3 (3=41-60%),1 (1=0-20%),1 (1=0-20%),2 (2=21-40%),0,2 (2=21-40%),3 (3=41-60%),0,2 (2=21-40%),3 (3=41-60%),
"CCn1c(Cn2nc(C(F)(F)F)cc2OC)cc(=O)c(C(=O)O)c1-c1ccc(Cl)c(Cl)c1 [Compound 145, 2-(3,4-dichlorophenyl)-1-ethyl-6-[[5-methoxy-3-(trifluoromethyl)pyrazol-1-yl]methyl]-4-oxo-pyridine-3-carboxylic acid]",3 (3=41-60%),0,0,3 (3=41-60%),1 (1=0-20%),3 (3=41-60%),5 (5=81-100%),1 (1=0-20%),3 (3=41-60%),4 (4=61-80%),3 (3=41-60%),3 (3=41-60%),1 (1=0-20%),3 (3=41-60%),4 (4=61-80%),0,3 (3=41-60%),4 (4=61-80%),"Pre-emergence Test IPOHE, percentage damage caused to the plant (five-point scale) ([1]; 250 g/Ha (*)): 0; Pre-emergence Test AMAPA, percentage damage caused to the plant (five-point scale) ([2]; 250 g/Ha (*)): 0; Pre-emergence Test SETFA, percentage damage caused to the plant (five-point scale) (Setaria faberi (SETFA) [5]; 250 g/Ha (*)): 5 (5=81-100%); Pre-emergence Test ECHCG, percentage damage caused to the plant (five-point scale) ([7]; 250 g/Ha (*)): 2 (2=21-40%); Pre-emergence Test AMARE, percentage damage caused to the plant (five-point scale) ([9]; 250 g/Ha (*)): 0; Pre-emergence Test ZEAMX, percentage damage caused to the plant (five-point scale) (Zea mays (ZEAMX) [11]; 250 g/Ha (*)): 0"
"CCn1c(Cn2nc(C)cc2O)cc(=O)c(C(=O)O)c1-c1ccc(Cl)c(Cl)c1 [Compound 146, 2-(3,4-dichlorophenyl)-1-ethyl-6-[(5-hydroxy-3-methyl-pyrazol-1-yl)methy]-4-oxo-pyridine-3-carboxylic acid]",0,0,,0,,0,1 (1=0-20%),,0,1 (1=0-20%),,0,0,,0,0,,1 (1=0-20%),
